Publication PMC12207590, “Substrate Specificity of the Organic Cation Transporters MATE1 and MATE2K and Functional Overlap with OCT1 and OCT2” (Journal of Medicinal Chemistry, 2025)
Read-outs that look alike come from different tables or passages of the source.

Columns and labels:
MATE1 = molecular target: T1, MATE1 (Homo sapiens, UniProt Q96FL8); test: Uptake ratio in MATE1-overexpressing HEK293 cells vs empty vector (2.5 μM, 1 min, HPLC-MS/MS); assay type: cell-based; conditions: for MATE1 ratio in this study: Table S1
T1 sequence (Q96FL8 1-570): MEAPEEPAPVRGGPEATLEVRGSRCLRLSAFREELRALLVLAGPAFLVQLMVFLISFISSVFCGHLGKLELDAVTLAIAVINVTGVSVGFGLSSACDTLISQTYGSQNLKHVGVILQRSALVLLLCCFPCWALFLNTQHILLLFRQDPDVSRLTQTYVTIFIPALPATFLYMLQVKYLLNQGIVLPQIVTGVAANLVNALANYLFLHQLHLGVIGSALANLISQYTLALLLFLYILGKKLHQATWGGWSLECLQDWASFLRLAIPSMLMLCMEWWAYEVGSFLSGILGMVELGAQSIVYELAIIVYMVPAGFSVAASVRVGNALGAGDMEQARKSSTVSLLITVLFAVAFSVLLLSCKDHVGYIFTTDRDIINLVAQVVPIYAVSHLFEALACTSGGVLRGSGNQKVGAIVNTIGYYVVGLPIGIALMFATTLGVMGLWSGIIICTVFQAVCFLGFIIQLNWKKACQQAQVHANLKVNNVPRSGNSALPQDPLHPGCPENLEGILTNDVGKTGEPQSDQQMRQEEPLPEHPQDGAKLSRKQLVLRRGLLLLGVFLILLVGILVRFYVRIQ

MATE2K = MATE2K (Homo sapiens, UniProt Q86VL8); test: Uptake ratio in MATE2K-overexpressing HEK293 cells vs empty vector (2.5 μM, 1 min, HPLC-MS/MS); assay type: cell-based; conditions: for MATE2K ratio in this study: Table S1
MATE2K, sequence (Q86VL8 1-566 isoform Q86VL8-3): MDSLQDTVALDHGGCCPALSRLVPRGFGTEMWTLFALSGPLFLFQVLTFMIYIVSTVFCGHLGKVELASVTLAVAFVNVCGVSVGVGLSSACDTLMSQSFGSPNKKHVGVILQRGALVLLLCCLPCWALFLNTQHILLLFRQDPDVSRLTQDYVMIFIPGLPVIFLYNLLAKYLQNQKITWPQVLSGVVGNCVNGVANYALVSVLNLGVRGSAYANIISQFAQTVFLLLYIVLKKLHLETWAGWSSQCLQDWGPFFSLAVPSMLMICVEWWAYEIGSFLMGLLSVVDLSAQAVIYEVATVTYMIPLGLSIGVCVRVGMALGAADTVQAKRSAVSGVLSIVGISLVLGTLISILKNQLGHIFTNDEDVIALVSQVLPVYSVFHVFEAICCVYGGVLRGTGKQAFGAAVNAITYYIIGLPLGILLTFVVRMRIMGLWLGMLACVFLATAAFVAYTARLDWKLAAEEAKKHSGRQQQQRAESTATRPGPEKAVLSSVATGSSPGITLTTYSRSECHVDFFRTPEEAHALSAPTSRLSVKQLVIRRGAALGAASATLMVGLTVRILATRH

[1] = fold uptake over empty vector, 2.5 μM, 1 min
[2] = mean ratio of uptake in MATE1-overexpressing HEK293 cells vs empty vector, 2.5 μM, 1 min
[3] = mean ratio of uptake in MATE2K-overexpressing HEK293 cells vs empty vector, 2.5 μM, 1 min
[4] = uptake ratio MATE1-overexpressing vs empty-vector HEK293 cells, 2.5 μM, 1 min, mean
[5] = uptake ratio MATE2K-overexpressing vs empty-vector HEK293 cells, 2.5 μM, 1 min, mean

Row | SMILES | MATE1 ratio (MATE1; [1]) | MATE2K ratio (MATE2K; [1]) | also measured
1 | CCOC(=O)C1=C[C@@H](OC(CC)CC)[C@H](NC(C)=O)[C@@H](N)C1 [Oseltamivir] | 1.18 | 1.04 | –
2 | Clc1ccc(COC(Cn2ccnc2)c2ccc(Cl)cc2Cl)c(Cl)c1 (centres unmarked) [Miconazole] | 1.33 | 1.50 | –
3 | O=C(O)c1cccnc1 [Niacin] | 1.06 | 0.90 | –
4 | CCOC(=O)c1ccc(OC(=O)CCCCCNC(=N)N)cc1 [Gabexate] | 5.78 | 4.18 | –
5 | OCCc1ccccc1 | 1.39 | 1.20 | –
6 | COc1cc(CCN)ccc1O [3-Methoxy-p-tyramine] | – | – | MATE1 (uptake ratio) (MATE1): 4.05; MATE1 ratio (MATE1): 4.05; MATE2 (uptake ratio) (MATE2K): 1.39; MATE2K ratio (MATE2K): 1.39
7 | C[N+]1(C)CCN(c2ccccc2)CC1 [Dimethylphenylpiperazinium] | – | – | MATE1 ratio (MATE1): 29.06; MATE2K ratio (MATE2K): 4.30
8 | Nc1ccc(S(=O)(=O)c2ccc(N)cc2)cc1 [Dapsone] | 0.89 | 0.95 | –
9 | CC(C)NCC(O)COc1ccc(CCOCC2CC2)cc1 (centres unmarked) [Betaxolol] | 1.37 | 1.43 | MATE1 (uptake ratio) (MATE1; [2]): 1.37; MATE2 (uptake ratio) (MATE2K; [3]): 1.43
10 | Cc1cc(O)cc(C)c1OCC(C)N (centres unmarked) [4-Hydroxymexiletine] | 1.67 | 1.42 | MATE1 (uptake ratio) (MATE1; [2]): 1.67; MATE2 (uptake ratio) (MATE2K; [3]): 1.42
11 | CC[C@@H]1C(=O)OC[C@@H]1Cc1cncn1C [Pilocarpine] | 1.39 | 1.39 | –
12 | COc1ccc(CCN)cc1 [4-Methoxyphenethylamine] | – | – | MATE1 (uptake ratio) (MATE1): 1.4; MATE1 ratio (MATE1): 1.40; MATE2 (uptake ratio) (MATE2K): 1.23; MATE2K ratio (MATE2K): 1.23
13 | CN1CC(=O)NC1=N [Creatinine] | 0.83 | 1.07 | MATE1 ratio in this study (MATE1; 2.5 μM, 1 min): 0.83; MATE2K ratio in this study (MATE2K; 2.5 μM, 1 min): 1.07
14 | CN(C)CCC=C1c2ccccc2COc2ccccc21 [Doxepin (E), Doxepin] | 1.26 | 1.08 | –
15 | CN(CCN1CCC(OC(=O)Nc2ccccc2-c2ccccc2)CC1)C(=O)c1ccc(CN2CCC(C(N)=O)CC2)cc1 [Revefenacin] | 1.39 | 1.17 | MATE1 (MATE1; [4]): 1.39; MATE2 (MATE2K; [5]): 1.17
16 | CCCCCCCCc1ccc(CCC(N)(CO)CO)cc1 [Fingolimod] | 1.12 | 1.14 | –
17 | CC(C)(C)NCC(O)COc1cccc2c1CC(O)C(O)C2 (centres unmarked) [Nadolol] | 9.41 | 10.12 | MATE1 ratio in this study (MATE1; 2.5 μM, 1 min): 9.41; MATE2K ratio in this study (MATE2K; 2.5 μM, 1 min): 10.12
18 | CNC[C@H](O)c1ccc(O)c(O)c1 [Epinephrine (-), Epinephrine] | 37.78 | 3.98 | –
19 | O=C1CCC[C@@H]2[C@H]3CCCN4CCC[C@@H](CN12)[C@@H]34 [Matrine] | – | – | MATE1 ratio (MATE1): 1.03; MATE2K ratio (MATE2K): 1.27
20 | CC(C)(C)NCC(O)c1cc(O)cc(O)c1 (centres unmarked) [Terbutaline] | – | – | MATE1 (MATE1; [4]): 6.74; MATE2 (MATE2K; [5]): 7.04
21 | Nc1ccc2[nH]ncc2c1 [5-Aminoindazole] | 0.99 | 0.73 | MATE1 (uptake ratio) (MATE1; [2]): 0.99; MATE2 (uptake ratio) (MATE2K; [3]): 0.73
22 | CCCC(=O)OC(CC(=O)[O-])C[N+](C)(C)C (centres unmarked) [Butyrylcarnitine] | 0.82 | 1.09 | MATE1 (uptake ratio) (MATE1; [2]): 0.82; MATE2 (uptake ratio) (MATE2K; [3]): 1.09
23 | C1CCN2C[C@@H]3C[C@@H](CN4CCCC[C@@H]34)[C@H]2C1 [Sparteine (+), Sparteine] | – | – | MATE1 (MATE1): 1.62; MATE1 ratio (MATE1): 1.62; MATE2 (MATE2K): 1.31; MATE2K ratio (MATE2K): 1.31
24 | OCCN(CCO)c1nc(N2CCCCC2)c2nc(N(CCO)CCO)nc(N3CCCCC3)c2n1 [Dipyridamole] | 1.11 | 1.13 | –
